Results from article PMC12040169 (PLOS Biology, 2025).

Test: in vitro
Conditions: human, hela cells, % viability

Row | SMILES | viability at 28.5 h, 10 µM [%] | viability at 28.5 h, 10 µM (bulk resorufin, single well) [%]
1 | CCc1nc(CN2CCOC(c3ccc(F)cc3)C2)cs1 (stereo not drawn) [CBK305090] | 89.7 | –
2 | Cn1nc(-c2ccc(F)cc2)n(-c2ccncc2)c1=O [CBK282294] | 96.5 | –
3 | O=C(c1ccc(F)cc1)C1CCN(C/C=C/c2ccccc2)CC1 [CBK149124] | 90.4 | –
4 | O=C(O)CCN1C(=O)c2ccc(Oc3ccc([N+](=O)[O-])cc3)cc2C1=O [CBK263357] | 96.2 | –
5 | Cc1ccc(S(=O)(=O)NC(CO)C(=O)O)cc1 (stereo not drawn) [CBK260965] | 96 | –
6 | c1coc(-c2nc3n(n2)CCS3)c1 [CBK007565] | 84.7 | –
7 | CNc1cc(C(=O)N[C@@H]2CCOC[C@H]2Oc2ccc(CO)cc2)ccn1 [CBK306606] | 98.1 | –
8 | COc1ccccc1NC(=O)CN(c1ccc(Br)cc1)S(C)(=O)=O [CBK265254] | 99.3 | –
9 | CC(=O)Nc1ccccc1NC(=O)c1ccccc1CCc1ccccc1 [CBK268621] | 97.1 | –
10 | COC(=O)c1c(COC(=O)c2cnc(Cl)c(Cl)c2)nc2ccccc2c1C [CBK296940] | 102 | –
11 | COc1ccc(F)cc1-c1ccccc1CC1(C(=O)NCc2cccs2)CCOCC1 [CBK286416] | 93.7 | –
12 | CCn1c(C)nc2cc(NC(=O)Cn3cc(C(=O)NC4CCCCC4)ccc3=O)ccc21 [CBK286095] | 92.9 | –
13 | CC(C)(C)c1ccc(-c2cnc3ncccc3c2N)cc1 [CBK083684] | 99.9 | –
14 | O=C(c1csc(-c2ccncc2)n1)N1CCN(c2ccccc2)CC1 [CBK288590] | 110 | –
15 | Cc1c(C(C)NCCc2nnc[nH]2)cnn1-c1ccc(C#N)cc1 (stereo not drawn) [CBK304063] | 98.1 | –
16 | COc1ccc(CCNS(=O)(=O)c2ccc(C3CNC(=O)C3)cc2)cc1OC (stereo not drawn) [CBK268352] | 112 | –
17 | COc1cc(-c2nc3ccccn3c2/N=C/c2ccc(-c3ccc([N+](=O)[O-])cc3)o2)ccc1O [CBK262288] | 79.8 | –
18 | CCn1c2ccccc2c2ccc(/C=N/NC(=O)c3ccc(O)cc3O)cc21 [CBK262948] | 56.9 | –
19 | COc1cc2c(c(OC)c1OC)C1(CCN(Cc3ccc(S(C)(=O)=O)cc3)CC1)NC(=O)C2 [CBK040014] | 108 | –
20 | O=C(N[C@H]1CCN2C(=O)c3cc(Br)ccc3NC(=O)[C@H]12)c1cccc(F)c1 [CBK289334] | 82.3 | –
21 | COc1ccc(-c2cnn(-c3ccc(OC(F)(F)F)cc3)n2)cc1 [CBK112773] | 87.6 | –
22 | CCCCc1ccc(S(=O)(=O)n2ccc3c(N4CCNCC4)cccc32)cc1 [CBK003744C] | 78.7 | –

Row | SMILES | viability at 28.5 h, 10 µM [%] | viability at 28.5 h, 10 µM (bulk resorufin, single well) [%]
23 | CCN1CCC(Oc2nccnc2OCc2cc(C)on2)CC1 [CBK082962T] | 94.7 | –
24 | COc1ccc(CNC(=S)Nc2cccc(C(F)(F)F)c2)cc1OC [CBK266977] | 101 | –
25 | CC(NC(=O)CCc1cnn(C)c1)c1nc(-c2ccncc2)cs1 (stereo not drawn) [CBK305496] | 91.4 | –
26 | CC(C)CC1OC(NC2CCCCCC2)=NC1=O (stereo not drawn) [CBK074901] | 88.8 | –
27 | Cc1nccn1CCC1CCN(C(=O)CCCn2ccnc2)CC1 [CBK281988] | 95.3 | –
28 | CC(=O)Nc1ccc(S(=O)(=O)Nc2nc3ccccc3nc2Nc2ccc(C(=O)O)cc2)cc1 [CBK296079] | 125 | –
29 | COc1ccc(C(C)C)cc1-c1cn2ccnc2c(Nc2ccc(N3CCOCC3)cc2)n1 [CBK037338] | 103 | –
30 | CCn1c(SCc2nc(-c3ccc(Br)cc3)no2)nnc1-c1c[nH]c2ccccc12 [CBK268668] | 94.3 | –
31 | CC1(C)[C@H]2CC/C(=N/O)[C@]1(C)NC2=O [CBK006513] | 84.8 | –
32 | Cc1ccc(-n2c(SCC(=O)c3ccc4c(c3)OCO4)nnc2-c2ccncc2)cc1 [CBK266132] | 104 | –
33 | CC(C)(C)OC(=O)N1CCCC(NC(CO)c2ccco2)CC1 (stereo not drawn) [CBK304049] | 101 | –
34 | COCC1CN(S(=O)(=O)c2cnc3ccsc3c2)C1 [CBK304768] | 72.4 | –
35 | COc1cc(C(c2c[nH]c3ccccc23)c2c[nH]c3ccccc23)c(Br)cc1OC(C)=O [CBK266051] | 107 | –
36 | Nc1cc2ccccc2nc1C1CCN(C(=O)C2CC=CCC2)CC1 (stereo not drawn) [CBK285016] | 88.9 | –
37 | Cc1ccc(N2CC(C(=O)NCCc3ccc(S(N)(=O)=O)cc3)CC2=O)cc1 (stereo not drawn) [CBK267531] | 84.4 | –
38 | O=[N+]([O-])c1ccc(N2CCN(C/C=C/c3ccccc3[N+](=O)[O-])CC2)cc1 [CBK261895] | 95 | –
39 | COc1ccc(C(=O)Nc2ccc3oc(-c4cccc(C)c4)nc3c2)cc1Br [CBK261944] | 100 | –
40 | O=C(NCCO)c1ccc(CSc2nc3sc4c(c3c(=O)[nH]2)CCCC4)cc1 [CBK263522] | 96.6 | –
41 | CCN(CC)CCN1C(=O)C(O)=C(C(=O)c2cccs2)C1c1ccccn1 (stereo not drawn) [CBK269319] | 76.3 | –
42 | CCn1c(SCC(=O)N2CCN(c3ccccc3)CC2)nnc1-c1ccc(N)cc1 [CBK265786] | 103 | –
43 | O=[N+]([O-])c1ccc(N2CCN(S(=O)(=O)c3ccccc3)CC2)cc1NCc1cccnc1 [CBK264415] | 96.5 | –
44 | CCCn1cnnc1CN(C)C(=O)NCCc1nc2ccccc2s1 [CBK307663] | 98.2 | –

Row | SMILES | viability at 28.5 h, 10 µM [%] | viability at 28.5 h, 10 µM (bulk resorufin, single well) [%]
45 | COc1ccccc1N1CCN(C(=O)NCC2CCCCC2)CC1 [CBK155588] | 98.3 | –
46 | O=C(NCc1ccc(-c2nc3ncccc3o2)cc1)c1ccc(F)cc1 [CBK270182] | 91.3 | –
47 | CN1CCC(C(=O)N2CCCc3ccccc32)CC1 [CBK200260] | 95 | –
48 | O=C(NC1CCCc2c1cnn2Cc1ccccc1)c1ccncc1 (stereo not drawn) [CBK282250] | 93.8 | –
49 | CC(=O)N(C)c1nc(-c2cccc(N(C)C)c2)ccc1C(=O)N(C)C [CBK076555] | 92.3 | –
50 | CC(C)(C)c1nnc(NCc2ccccc2)s1 [CBK074922] | 95.7 | –
51 | COC(=O)c1cccc(OCC(O)Cn2nc(C)c(C)c(C#N)c2=O)c1 (stereo not drawn) [CBK305563] | 85.3 | –
52 | CCOc1ccc(-c2nc(CSc3n[nH]c(=O)n3CCc3ccccc3)cs2)cc1 [CBK296735] | 94.7 | –
53 | Cc1ccccc1C(=O)NCCNC(=O)c1cccnc1 [CBK269222] | 96.2 | –
54 | COc1cccc(Cn2c(C3CCNCC3)cc3cccnc32)c1 [CBK285076] | 91.5 | –
55 | CC(NC(=O)N(Cc1ccc(CN)cc1)Cc1cnc(-c2ccccc2)[nH]1)c1cccc2ccccc12 (stereo not drawn) [CBK046149C] | 97.1 | –
56 | CCC(Oc1cccc(Cl)c1)C(=O)NN1CCN(C)CC1 (stereo not drawn) [CBK268135] | 116 | –
57 | CCOC(=O)C1(c2ccccc2)CCN(C(=O)c2ccc(S(N)(=O)=O)cc2)CC1 [CBK132200] | – | 99.7
58 | Cc1ccc(Nc2nc(N)nc(CN3CCN(Cc4ccc5c(c4)OCO5)CC3)n2)cc1 [CBK268985] | 96.1 | –
59 | Cc1nc(NC(=O)C2CC(=O)N(c3cccc(C(C)C)c3)C2)sc1-c1n[nH]c(=S)n1C (stereo not drawn) [CBK295306] | 91 | –
60 | Nc1ccccc1C(=O)NCc1ccncc1 [CBK057024] | 90.1 | –
61 | C[C@H]1[C@@H]2[C@@H](O)C([C@H](C)C(=O)NCc3ccccn3)CC[C@@]2(C)CC[C@@H]1NC(=O)C1CC1 (stereo partly drawn) [CBK289445] | 97.2 | –
62 | O=C(NC[C@H]1O[C@@H](CC(=O)N2CCN(c3ccccc3)CC2)[C@H](O)[C@@H]1O)c1ccco1 [CBK288919] | 97.9 | –
63 | CCN(CC)C(=O)C1CCCN(C2CCN(C(=O)c3c4ccccc4cc4ccccc34)CC2)C1 (stereo not drawn) [CBK066966] | 102 | –
64 | CNC(=O)C(NC(=S)NC(=O)c1ccc(F)cc1)C(C)(C)C (stereo not drawn) [CBK021945] | 109 | –
65 | Cc1ccc(C2C(C(=O)c3ccc(Cl)cc3)=C(O)C(=O)N2CCCN2CCOCC2)o1 (stereo not drawn) [CBK264514] | 92.6 | –
66 | CCNS(=O)(=O)c1ccc(NC(=S)Nc2ccc(S(N)(=O)=O)cc2)cc1 [CBK266978] | 99.5 | –

Row | SMILES | viability at 28.5 h, 10 µM [%] | viability at 28.5 h, 10 µM (bulk resorufin, single well) [%]
67 | CN1CCN(C(=O)c2cccc(-n3cccn3)c2)C(c2ccccc2)C1 (stereo not drawn) [CBK282013] | 90.5 | –
68 | CCCC(=O)Nc1ccc(OCc2cnccn2)c(C(C)=O)c1 [CBK304766] | 102 | –
69 | Cc1cc(=O)n(CC(=O)Nc2ccc3c(c2)OCO3)cn1 [CBK287835] | 109 | –
70 | CC1(C(=O)Nc2cnn(Cc3ccc(F)cc3)c2)CCCO1 (stereo not drawn) [CBK282585] | 104 | –
71 | CC(C)(C)OC(=O)N1CCC[C@]2(CCC(=O)N2)[C@H]1c1cccc(F)c1 [CBK283463] | 96.7 | –
72 | CN(c1ncc(-c2ccccc2)cc1C(=O)NCc1ccco1)S(C)(=O)=O [CBK076506] | 86.3 | –
73 | O=C1CCC[C@]2(CN(Cc3ccccc3)C[C@H]2c2cccnc2)N1 [CBK283349] | 96.1 | –
74 | O=C(NCc1cccs1)c1ccc(N2CCN(C(=O)c3ccccc3C(F)(F)F)CC2)nn1 [CBK153218] | 87.6 | –
75 | Cc1ccccc1NC(=O)Nc1cccc(F)c1 [CBK105831] | 88.3 | –
76 | Cc1cc2c(=O)n(CC(=O)NCc3ccccn3)cnc2s1 [CBK071900] | 91.1 | –
77 | COc1cc(C(CC(=O)O)C(=O)O)c([N+](=O)[O-])cc1OC (stereo not drawn) [CBK268541] | 96.9 | –
78 | CC(=O)Nc1cccc(-n2cnnc2SCC2CCCCC2)c1 [CBK305054] | 96.2 | –
79 | NC(=O)N/N=C/COc1cccc(C(F)(F)F)c1 [CBK022736] | 102 | –
80 | CCc1nc2ccc(C(=O)N(C)CCN(C)C)cn2c1N(C)Cc1cc2ccccc2s1 [CBK146551] | 89.3 | –
81 | N=C(N)CCCOc1ccccc1-c1ccccc1 [CBK058057] | 100 | –
82 | O=C1CCC(=O)N1CCOc1nccnc1OC1CCN(CCOc2ccccc2)CC1 [CBK084354] | 101 | –
83 | C=CCC1c2cccc(C(=O)O)c2C(=O)N1c1cccc(OC)c1 (stereo not drawn) [CBK113160] | 96.7 | –
84 | Cc1cc2occ(CC(=O)NCC(C)n3cncn3)c2cc1C (stereo not drawn) [CBK282614] | 101 | –
85 | CC(C)Cn1cncc1CN1C(=O)CC2(CCCC2)CC1=O [CBK306600] | 116 | –
86 | CCN1CC2(CCC1=O)CCN(c1ccnc(OC)c1C#N)CC2 [CBK307018] | 95 | –
87 | Cc1csc(-c2cn3ccnc3c(N3CCN(c4ccccn4)CC3)n2)c1 [CBK066530] | 95.6 | –
